ChEMBL document CHEMBL1201862, “PubChem BioAssay data set” (2004)
Activity calls are given as the source filed them. Rule as the data show it, for most assays here: actives have a measured EC50 and inactives only a lower limit.

Tests used:
[1] = target: T1, Apoptotic protease-activating factor 1 (Homo sapiens, UniProt O14727); experiment: SAR analysis of small molecule Activators of Apaf-1 in a Fluorescent assay - set 2.; assay type: functional; details: read-out: EC50_Mean
T1 sequence (O14727 whole entry): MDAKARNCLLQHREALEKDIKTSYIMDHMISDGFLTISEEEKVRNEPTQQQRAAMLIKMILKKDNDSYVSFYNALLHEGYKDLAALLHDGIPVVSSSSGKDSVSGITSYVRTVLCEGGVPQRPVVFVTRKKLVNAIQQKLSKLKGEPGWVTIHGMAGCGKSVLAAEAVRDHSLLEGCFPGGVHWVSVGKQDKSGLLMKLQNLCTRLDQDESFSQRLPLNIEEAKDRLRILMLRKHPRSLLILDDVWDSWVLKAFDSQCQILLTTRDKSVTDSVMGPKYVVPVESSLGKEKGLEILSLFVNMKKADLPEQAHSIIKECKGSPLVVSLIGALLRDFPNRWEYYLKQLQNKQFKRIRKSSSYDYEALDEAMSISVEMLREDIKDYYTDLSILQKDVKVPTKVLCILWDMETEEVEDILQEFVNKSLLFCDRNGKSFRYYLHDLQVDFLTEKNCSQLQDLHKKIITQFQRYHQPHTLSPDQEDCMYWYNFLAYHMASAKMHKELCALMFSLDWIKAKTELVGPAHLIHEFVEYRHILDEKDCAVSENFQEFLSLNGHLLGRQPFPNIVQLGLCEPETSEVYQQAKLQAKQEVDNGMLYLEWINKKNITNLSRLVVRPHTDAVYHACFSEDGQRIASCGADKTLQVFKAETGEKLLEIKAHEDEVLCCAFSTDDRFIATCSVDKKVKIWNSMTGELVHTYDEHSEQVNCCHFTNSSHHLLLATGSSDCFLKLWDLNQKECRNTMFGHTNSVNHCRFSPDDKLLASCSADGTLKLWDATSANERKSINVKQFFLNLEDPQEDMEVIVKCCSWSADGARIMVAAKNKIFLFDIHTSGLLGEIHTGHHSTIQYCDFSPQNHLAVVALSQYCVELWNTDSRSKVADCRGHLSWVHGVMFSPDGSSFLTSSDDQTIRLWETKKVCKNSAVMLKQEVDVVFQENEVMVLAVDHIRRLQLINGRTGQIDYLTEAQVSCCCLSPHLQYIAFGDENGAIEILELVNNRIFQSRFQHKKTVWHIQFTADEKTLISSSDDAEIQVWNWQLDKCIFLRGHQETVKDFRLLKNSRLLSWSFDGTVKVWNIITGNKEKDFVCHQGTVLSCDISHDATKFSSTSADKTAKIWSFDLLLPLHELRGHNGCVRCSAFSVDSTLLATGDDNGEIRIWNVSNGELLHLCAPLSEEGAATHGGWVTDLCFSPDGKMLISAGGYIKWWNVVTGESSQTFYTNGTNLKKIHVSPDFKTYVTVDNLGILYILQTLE

[2] = SAR analysis of small molecule activators of Apaf-1 using a LZ-Caspase-9/Caspase-3 Fluorescent Selectivity assay - Set 2.; assay type: functional; details: read-out: EC50_Mean
BJ [3] = experiment: BJ-TERT fibroblast viability loss – cell-based, RAS-independent, luminescence, dose response (AID 1933); assay type: functional; details: Homo sapiens
Protein RecA = target: T2, Protein RecA (Mycobacterium tuberculosis, UniProt P9WHJ3); experiment: Fluorescence Cell-Free Homogeneous Dose Retest to Identify Inhibitors of RecA-Intein Splicing Activity. [Related pubchem assays (depositor defined):AID2097, AID2223, AID489010, AID492950]; assay type: functional
T2 sequence (P9WHJ3 whole entry): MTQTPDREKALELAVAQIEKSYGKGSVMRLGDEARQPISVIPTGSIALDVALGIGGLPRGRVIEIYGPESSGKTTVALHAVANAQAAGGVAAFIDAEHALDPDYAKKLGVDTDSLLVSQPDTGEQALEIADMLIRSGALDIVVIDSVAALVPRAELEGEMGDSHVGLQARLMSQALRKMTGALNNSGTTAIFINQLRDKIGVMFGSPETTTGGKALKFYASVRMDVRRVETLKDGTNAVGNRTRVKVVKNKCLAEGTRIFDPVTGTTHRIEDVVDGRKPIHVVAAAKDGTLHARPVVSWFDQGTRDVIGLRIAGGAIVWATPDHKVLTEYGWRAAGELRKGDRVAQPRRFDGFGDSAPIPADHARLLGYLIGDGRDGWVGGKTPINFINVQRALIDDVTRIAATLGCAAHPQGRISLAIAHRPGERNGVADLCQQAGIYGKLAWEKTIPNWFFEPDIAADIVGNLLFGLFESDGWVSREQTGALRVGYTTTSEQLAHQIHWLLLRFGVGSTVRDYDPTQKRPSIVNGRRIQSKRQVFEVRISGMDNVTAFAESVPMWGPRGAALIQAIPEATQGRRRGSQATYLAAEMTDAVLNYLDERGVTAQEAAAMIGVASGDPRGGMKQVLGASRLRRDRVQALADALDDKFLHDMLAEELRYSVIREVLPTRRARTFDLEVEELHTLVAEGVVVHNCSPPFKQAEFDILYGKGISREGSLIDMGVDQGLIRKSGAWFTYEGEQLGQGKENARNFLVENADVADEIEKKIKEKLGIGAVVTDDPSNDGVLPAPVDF

Streptococcus = experiment: GAS UMAA2166 growth inhibition – luminescence, BacTiterGlo, counter-screen for streptokinase expression inhibitor project, dose response (AID 1915); assay type: functional, organism-based;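 also: potency for reduction of bacterial viability or growth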
[4] = test system: Streptococcus sp. 'group A'; experiment: Streptococcus pyogenes SK(-)GAS viability under kanamycin – luminescence, BacTiterGlo, confirmation, counter-screen for streptokinase expression inhibitor project, dose response (AID 1900); assay type: functional, organism-based
INS1 = experiment: INS-1E survival protection against cytokine death – cell-based, luminescence, retest, dose response (AID 449756); assay type: functional; details: Rattus norvegicus;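 also: cell death triggered by IL-1 beta plus TNF-alpha plus IFN-gamma mixture; protective hits raise ATP signal compared with cytokine alone wells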
[5] = target: T3, Replicative DNA helicase DnaB (Mycobacterium tuberculosis, UniProt P9WMR3); experiment: DnaB intein splicing inhibitors, dose response, biochemical, cell-free fluorescence (AID 449749); assay type: functional
T3 sequence (P9WMR3 whole entry): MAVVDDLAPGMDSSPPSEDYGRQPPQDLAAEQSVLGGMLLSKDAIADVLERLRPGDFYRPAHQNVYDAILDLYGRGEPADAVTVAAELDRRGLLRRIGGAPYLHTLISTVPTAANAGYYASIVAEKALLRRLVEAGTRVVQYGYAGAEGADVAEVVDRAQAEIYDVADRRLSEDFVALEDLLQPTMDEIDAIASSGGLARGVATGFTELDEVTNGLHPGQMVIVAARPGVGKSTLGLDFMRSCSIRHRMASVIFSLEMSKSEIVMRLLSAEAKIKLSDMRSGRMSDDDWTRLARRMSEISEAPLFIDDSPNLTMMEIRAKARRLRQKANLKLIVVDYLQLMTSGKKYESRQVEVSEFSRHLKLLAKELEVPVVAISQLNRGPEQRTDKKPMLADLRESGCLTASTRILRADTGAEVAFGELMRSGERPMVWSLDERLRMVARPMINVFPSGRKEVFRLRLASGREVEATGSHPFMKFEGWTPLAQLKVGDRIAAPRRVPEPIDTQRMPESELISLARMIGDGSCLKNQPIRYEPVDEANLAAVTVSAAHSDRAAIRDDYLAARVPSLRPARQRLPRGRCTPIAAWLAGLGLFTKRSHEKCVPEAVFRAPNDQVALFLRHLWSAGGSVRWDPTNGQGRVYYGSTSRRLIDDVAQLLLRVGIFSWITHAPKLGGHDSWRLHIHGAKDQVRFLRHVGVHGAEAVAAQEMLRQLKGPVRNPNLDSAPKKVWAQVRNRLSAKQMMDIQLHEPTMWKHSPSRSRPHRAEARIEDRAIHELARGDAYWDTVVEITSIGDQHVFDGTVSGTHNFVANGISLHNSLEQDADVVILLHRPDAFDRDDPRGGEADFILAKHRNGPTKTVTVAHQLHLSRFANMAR

Streptokinase A = target: T4, Streptokinase A (Streptococcus pyogenes serotype M1, UniProt P10520); experiment: viability-normalized secreted streptokinase activity reduction – plasminogen activation absorbance, OD405, dose response (AID 1914); assay type: functional, Streptococcus pyogenes M1 GAS;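 also: secreted streptokinase activity via plasminogen activation per viability signal from cell pellet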
T4 sequence (P10520 whole entry): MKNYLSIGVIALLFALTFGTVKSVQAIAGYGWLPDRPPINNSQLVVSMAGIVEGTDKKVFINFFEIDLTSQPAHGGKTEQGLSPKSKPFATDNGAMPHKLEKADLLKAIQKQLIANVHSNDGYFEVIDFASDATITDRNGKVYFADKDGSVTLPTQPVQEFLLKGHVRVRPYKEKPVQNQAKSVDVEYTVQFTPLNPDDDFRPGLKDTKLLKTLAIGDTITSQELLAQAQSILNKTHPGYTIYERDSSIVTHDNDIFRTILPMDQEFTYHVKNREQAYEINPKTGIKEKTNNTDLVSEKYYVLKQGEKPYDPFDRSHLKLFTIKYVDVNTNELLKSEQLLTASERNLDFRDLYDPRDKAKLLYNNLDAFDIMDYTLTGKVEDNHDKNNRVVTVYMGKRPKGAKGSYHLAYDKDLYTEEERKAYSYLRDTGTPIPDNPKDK

BJ [6] = experiment: BJ-TERT-LT-ST fibroblast viability loss – cell-based, RAS-independent, luminescence, dose response (AID 1935); assay type: functional; details: Homo sapiens;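 also: BJ fibroblasts immortalized with TERT plus LT and ST oncogenes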
[7] = DRD fibroblast viability loss – cell-based, non-viral oncogenic, luminescence, dose response (AID 1934); assay type: functional; details: Homo sapiens
[8] = HEK-293T cell viability reduction – luminescence, B-cell screen hits, cytotoxicity control for BCR NF-kB inhibitor project, dose response (AID 489021); assay type: functional, cell-based;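 also: HEK-293T cells carrying an NF-kB luciferase reporter; cells exposed to compound for about 14 hours before viability readout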
BJ [9] = experiment: growth inhibition of engineered Ras-driven BJ cells – cell-based, alamar blue fluorescence, cherrypicked samples, dose response (AID 2631); assay type: functional; details: Homo sapiens;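 also: confirmatory dose-response assay in RAS-dependent BJ fibroblasts engineered with TERT, LT and ST, with cytotoxicity read by fluorescence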
BJ [10] = experiment: cells; assay type: functional, cell-based; details: Homo sapiens
[11] = target: T1, Apoptotic protease-activating factor 1; experiment: SAR analysis of small molecule Activators of Apaf-1 in a Fluorescent assay.; assay type: functional; details: read-out: EC50_Mean
[12] = target: T5, DNA dC->dU-editing enzyme APOBEC-3A (Homo sapiens, UniProt P31941); experiment: SAR analysis of small molecule inhibitors of APOBEC3A DNA Deaminase via a fluorescence-based single-stranded DNA deaminase assay.; assay type: functional; details: read-out: IC50_Mean
T5 sequence (P31941 whole entry): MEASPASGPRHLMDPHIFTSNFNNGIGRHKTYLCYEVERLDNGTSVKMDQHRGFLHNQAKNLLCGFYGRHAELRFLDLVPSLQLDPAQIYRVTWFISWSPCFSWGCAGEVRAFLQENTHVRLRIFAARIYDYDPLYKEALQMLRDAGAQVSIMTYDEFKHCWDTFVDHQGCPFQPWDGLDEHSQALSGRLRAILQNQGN

[13] = target: T6, DNA dC->dU-editing enzyme APOBEC-3G (Homo sapiens, UniProt Q9HC16); experiment: inhibition of APOBEC3G ssDNA deamination – biochemical, fluorescence, single-stranded DNA substrate, SAR follow-up (AID 602136); assay type: functional; details: read-out: IC50_Mean
T6 sequence (Q9HC16 whole entry): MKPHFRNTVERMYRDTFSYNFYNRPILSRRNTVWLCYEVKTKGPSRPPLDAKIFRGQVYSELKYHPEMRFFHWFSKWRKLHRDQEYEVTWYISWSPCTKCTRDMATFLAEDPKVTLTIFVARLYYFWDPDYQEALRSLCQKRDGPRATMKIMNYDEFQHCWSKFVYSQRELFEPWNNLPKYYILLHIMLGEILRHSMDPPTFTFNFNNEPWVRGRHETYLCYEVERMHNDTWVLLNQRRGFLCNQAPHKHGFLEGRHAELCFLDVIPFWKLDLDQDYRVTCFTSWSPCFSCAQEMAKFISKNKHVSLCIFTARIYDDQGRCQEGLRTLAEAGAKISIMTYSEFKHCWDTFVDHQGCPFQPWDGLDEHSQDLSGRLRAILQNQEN

[14] = target: Serine/threonine-protein kinase pim-1 (Homo sapiens, UniProt P11309); assay type: functional
Serine/threonine-protein kinase pim-1, sequence (P11309 whole entry): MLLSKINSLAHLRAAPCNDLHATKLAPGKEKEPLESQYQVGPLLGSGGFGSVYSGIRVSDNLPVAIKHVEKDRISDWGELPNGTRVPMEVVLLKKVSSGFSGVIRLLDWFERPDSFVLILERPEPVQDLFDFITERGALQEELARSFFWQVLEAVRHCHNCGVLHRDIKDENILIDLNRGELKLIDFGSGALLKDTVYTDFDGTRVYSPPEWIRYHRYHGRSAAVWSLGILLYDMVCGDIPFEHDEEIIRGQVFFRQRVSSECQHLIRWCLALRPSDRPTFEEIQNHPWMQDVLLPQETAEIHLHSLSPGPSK

[15] = target: T7, Heat shock factor protein 1 (Mus musculus, UniProt P38532); experiment: decrease of HSF1-responsive luciferase luminescence – cell-based, NIH3T3, dose retest, confirmation (AID 2382); assay type: functional;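 also: NIH3T3 fibroblasts with HSF1-driven luciferase reporter stressed by proteasome inhibitor MG132; luminescence from HSF1-driven luciferase expression after 8 hours of MG132 stress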
T7 sequence (P38532 whole entry): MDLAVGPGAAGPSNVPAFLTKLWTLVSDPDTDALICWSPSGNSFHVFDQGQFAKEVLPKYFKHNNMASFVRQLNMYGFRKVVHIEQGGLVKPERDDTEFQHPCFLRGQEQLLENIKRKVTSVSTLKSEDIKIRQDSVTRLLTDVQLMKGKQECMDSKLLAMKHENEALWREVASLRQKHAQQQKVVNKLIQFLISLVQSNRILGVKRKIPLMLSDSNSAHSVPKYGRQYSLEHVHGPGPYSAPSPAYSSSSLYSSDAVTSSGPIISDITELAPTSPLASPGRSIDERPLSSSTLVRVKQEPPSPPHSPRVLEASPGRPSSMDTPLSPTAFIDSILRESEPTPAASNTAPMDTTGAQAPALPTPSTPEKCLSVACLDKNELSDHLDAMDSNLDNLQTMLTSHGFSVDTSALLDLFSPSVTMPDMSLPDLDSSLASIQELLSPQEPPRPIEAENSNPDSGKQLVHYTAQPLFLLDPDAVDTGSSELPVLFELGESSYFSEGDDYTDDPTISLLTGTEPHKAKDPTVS

[16] = target: Multidrug resistance protein CDR1 (Candida albicans, UniProt P43071); experiment: inhibition of Nile Red efflux via Candida CDR1 – S. cerevisiae AD1-8u, singleplex, Cherry Pick1 hits, dose response (AID 588606); assay type: functional
Multidrug resistance protein CDR1, sequence (P43071 whole entry, looked up): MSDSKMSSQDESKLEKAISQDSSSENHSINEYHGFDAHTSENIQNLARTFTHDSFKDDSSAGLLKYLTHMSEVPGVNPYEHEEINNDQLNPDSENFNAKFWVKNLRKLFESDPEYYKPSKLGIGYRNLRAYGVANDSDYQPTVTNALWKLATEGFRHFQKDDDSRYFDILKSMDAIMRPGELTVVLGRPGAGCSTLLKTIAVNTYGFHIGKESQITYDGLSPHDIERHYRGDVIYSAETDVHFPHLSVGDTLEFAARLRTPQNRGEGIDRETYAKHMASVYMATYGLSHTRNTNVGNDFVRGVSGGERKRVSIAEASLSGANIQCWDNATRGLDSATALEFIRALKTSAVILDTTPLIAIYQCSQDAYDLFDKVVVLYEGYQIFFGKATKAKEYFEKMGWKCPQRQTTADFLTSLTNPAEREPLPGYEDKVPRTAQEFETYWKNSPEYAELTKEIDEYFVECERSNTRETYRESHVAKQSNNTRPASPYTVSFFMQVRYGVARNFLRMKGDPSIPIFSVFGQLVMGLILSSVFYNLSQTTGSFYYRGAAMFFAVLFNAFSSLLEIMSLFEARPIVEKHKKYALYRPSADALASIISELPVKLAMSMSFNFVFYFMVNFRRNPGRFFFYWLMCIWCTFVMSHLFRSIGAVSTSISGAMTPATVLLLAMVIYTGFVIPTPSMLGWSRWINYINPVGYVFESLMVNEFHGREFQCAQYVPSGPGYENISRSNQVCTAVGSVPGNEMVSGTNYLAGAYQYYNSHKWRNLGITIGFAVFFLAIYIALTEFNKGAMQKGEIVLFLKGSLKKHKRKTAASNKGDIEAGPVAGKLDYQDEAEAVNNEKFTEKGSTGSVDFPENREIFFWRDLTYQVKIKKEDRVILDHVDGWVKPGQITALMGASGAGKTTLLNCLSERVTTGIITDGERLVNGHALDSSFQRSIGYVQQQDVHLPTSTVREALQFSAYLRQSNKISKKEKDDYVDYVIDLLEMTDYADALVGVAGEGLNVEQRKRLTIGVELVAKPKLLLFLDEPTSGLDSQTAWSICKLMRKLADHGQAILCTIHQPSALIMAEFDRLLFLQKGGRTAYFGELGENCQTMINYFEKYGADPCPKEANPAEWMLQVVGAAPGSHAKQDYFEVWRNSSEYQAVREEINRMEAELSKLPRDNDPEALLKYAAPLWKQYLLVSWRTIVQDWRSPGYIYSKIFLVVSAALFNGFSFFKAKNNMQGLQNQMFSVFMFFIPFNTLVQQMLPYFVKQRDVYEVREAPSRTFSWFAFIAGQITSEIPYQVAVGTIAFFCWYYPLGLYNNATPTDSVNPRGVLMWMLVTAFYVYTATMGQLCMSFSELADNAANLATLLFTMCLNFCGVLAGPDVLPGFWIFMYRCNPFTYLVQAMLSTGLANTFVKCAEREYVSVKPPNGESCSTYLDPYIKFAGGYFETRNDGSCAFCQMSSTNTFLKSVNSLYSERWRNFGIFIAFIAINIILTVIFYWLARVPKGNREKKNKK

[17] = target: T5, DNA dC->dU-editing enzyme APOBEC-3A; experiment: SAR analysis of small molecule inhibitors of APOBEC3A DNA Deaminase via a fluorescence-based single-stranded DNA deaminase assay - Set 2.; assay type: functional; details: read-out: IC50_Mean
[18] = target: T6, DNA dC->dU-editing enzyme APOBEC-3G; experiment: SAR analysis of small molecule inhibitors of APOBEC3G DNA Deaminase via a fluorescence-based single-stranded DNA deaminase assay - Set 2.; assay type: functional; details: read-out: IC50_Mean

O=C(O)C1CC(c2cccc(Br)c2)=NO1 (stereo not given)
EC50 [1]: > 100 µM (inactive) | EC50 [2]: > 100 µM (inactive)

CC1CCc2c(sc3nc(C(C)(C)C)nc(N4CCN(C(=O)CCl)CC4)c23)C1 (stereo not given)
EC50 (BJ [3]): 2.02 µM (active) | EC50 (Protein RecA): 0.481 µM (active) | EC50 (Streptococcus): 14.1 µM (active) | EC50 [4]: 2.96 µM (active) | AC50 (INS1): 5.84 µM (active) | AC50 [5]: 2.45 µM (active) | EC50 (Streptokinase A): 1.79 µM (active) | EC50 (BJ [6]): 4.69 µM (inconclusive) | EC50 [7]: 5.42 µM (inconclusive) | IC50 [8]: > 80 µM (inactive) | EC50 (BJ [9]): 0.588 µM (active) | EC50 (BJ [10]): 5.41 µM (inconclusive)

COc1ccc(C)cc1NC(=O)CCS(=O)(=O)c1ccc2c(c1)CC(C)N2C(=O)C1CC1 (stereo not given)
EC50 [11]: > 100 µM (inactive)

CC(CN1CCCCC1)C(=O)O (stereo not given)
EC50 [1]: > 100 µM (inactive) | EC50 [2]: > 100 µM (inactive)

Cc1cc(Cl)cc2c1N[C@H](c1ccncc1)C1CC=CC21 (stereo not given in full)
IC50 [12]: > 99 µM (inactive) | IC50 [13]: > 99 µM (inactive)

Cc1ccc2c(Nc3cc(OCc4ccccc4Br)ccc3Sc3ccc(O)cc3)ncnc2n1
Ki [14]: 5.01 µM (active)

O=C1C(Cc2ccccc2)Nc2ncnc(N3CCN(c4ccccc4)CC3)c2N1Cc1ccccc1 (stereo not given)
EC50 [15]: > 195 µM (not active) | EC50 [16]: 14.7 µM (active)

Cc1ccc(-c2csc3nnc(SCC(N)=O)n23)cc1
IC50 [17]: > 99 µM (inactive) | IC50 [18]: > 99 µM (inactive)

O=C(NC(=S)Nc1ccc2[nH]c(=O)[nH]c2c1)c1cncc(Br)c1
EC50 [16]: 2.09 µM (active)
